Experimental data: patent US20240325330A1, “NEW METHOD TO TREAT ACIDOSIS RELATED DISEASES WITH ACETOACETATE” (INSTITUT NATIONAL DE LA SANTÉ ET DE LA RECHERCHE MÉDICALE, priority 2021, published 2024)

Legend:
[1] = system: human monocytes differentiated into macrophages under lactic acidosis (LA-Mφ); assay: Oxygen consumption rate (XF96 extracellular flux analyzer); assay type: cell-based; conditions: LA-Mφ+AcAc compared to LA-Mφ
Description: Peripheral blood mononuclear cells (PBMC) were obtained from healthy human volunteers (Blood collection center, Angers, France; agreement ANG-2017-01) by standard density-gradient centrifugation on lymphocyte separation medium (Eurobio, Courtaboeuf, France). CD14+ monocytes were then isolated by positive magnetic cell-sorting (Miltenyi Biotec, Bergisch Gladbach, Germany). Monocytes (1×10^6 cells/mL) were cultured in complete medium (CM) consisting of RPMI 1640 (Lonza, Verviers, Belgium) supplemented with 10% fetal calf serum (FCS) (Eurobio), 2 mM L-glutamine, 1 mM sodium pyruvate, 0.1 mM non-essential amino acids, 10 mM HEPES, 100 U/mL penicillin and 100 μg/mL streptomycin (all from Lonza) in the presence of 50 ng/mL GM-CSF (R&D Systems, Minneapolis, MN). […]
We used an XF96 extracellular flux analyzer (Agilent Technologies, Santa Clara, CA) to determine the bioenergetic profile of cells. […] Oxygen consumption rate (OCR) was recorded, to assess mitochondrial respiratory activity and glycolytic activity. OCR was recorded in basal conditions, and the cells were then treated sequentially with 2 μg/mL oligomycin, and 3 μM carbonyl cyanide p-(trifluoromethoxy) phenylhydrazone (FCCP) (both from Sigma-Aldrich). […]

[2] = system: human monocytes differentiated into macrophages under lactic acidosis (LA-Mφ); assay: Autophagy assessed by TEM or molecularly (LC3, p62 western blot, mRNA); assay type: cell-based; conditions: day 3 LA-Mφ+AcAc relative to Mφ; data not shown
From the text: Peripheral blood mononuclear cells (PBMC) were obtained from healthy human volunteers (Blood collection center, Angers, France; agreement ANG-2017-01) by standard density-gradient centrifugation on lymphocyte separation medium (Eurobio, Courtaboeuf, France). CD14+ monocytes were then isolated by positive magnetic cell-sorting (Miltenyi Biotec, Bergisch Gladbach, Germany). […]
Cells were lysed in Trizol reagent (Life Technologies, Thermo Fisher Scientific), and total RNA was extracted with the RNeasy Micro kit (Qiagen, Hilden, Germany) and then reverse-transcribed with the Superscript II reverse transcriptase (Life Technologies). Levels of mRNA encoding the indicated proteins were then analyzed by subjecting the cDNA obtained by reverse transcription to qPCR. Relative quantification was performed by the 2^−ΔΔCT method, with RPS18, EF1A, TBP, RPL13A and PPIA as references. Results are expressed as relative mRNA levels.
Levels of LC3-I, LC3-II, p62, β-actin, AMPKα and pAMPKα were evaluated by western blotting. […] Protein loading was assessed by probing the membrane with a rabbit anti-β-actin antibody (Abcam, Cambridge, UK). Bound antibodies were detected by incubation with 1 μg/mL peroxidase-conjugated anti-rabbit or anti-mouse IgG antibody (Life Technologies) or with an anti-AMPK Ab, with the SuperSignal West Femto system (Thermo Fisher Scientific). […]

**Q.** What does the source list for `CC(=O)CC(=O)[O-].[Li+]` [AcAc, lithium acetoacetate]?
**A.** OCR consumption [1]: induced; autophagy [2]: not upregulated
